Experimental data as given in patent publication US7456152B2, “Peptide inhibitors of thrombin as potent anticoagulants” (priority 2004, dated 2008).
“And” between values parts separate entries of the source, which are not always exact repeats. Identical values can stand only once. Ends that are not written are not given here.

Tests used:
human α-thrombin [1] = biological target: T1, human α-thrombin (Homo sapiens, UniProt P00734); assay: Clotting assay: fibrinogen clotting by human thrombin, concentration doubling the clotting time (DCT) = IC50; type: biochemical
T1 construct: Bovine and human α-thrombins were supplied by Haematologic Technologies Inc (VT, USA); cleaved off efficiently by thrombin to generate the free N-terminus of the A-chain of human thrombin; purchased Haematologic Technologies Inc (VT, USA)
Procedure: The clotting assays were carried out by use of the protocols described previously (DiMaio, J., Gibbs, B., Munn, D., Lefebvre, J., Ni, F., and Konishi, Y. (1990) J. Biol. Chem. 265, 21698-21703; and Witting, J. I., Bourdon, P., Brezniak, D. V., Maraganore, J. M., and Fenton, J. W. (1992) Biochem. J. 283 (Pt 3), 737-743) The assay employs bovine plasma fibrinogen dissolved at 0.1% in 50 mM Tris-Cl, 100 mM NaCl, 0.1% PEG-8000 at pH 7.6 (i.e. the clotting buffer). Each assay mixture contained a certain concentration of the peptide, and the reaction was started by the addition of human thrombin to a final concentration of 0.1 NIH unit/ml. Optical absorbance of the assay mixtures was measured at 420 nm and 37° C. using the Spectramax™ plate reader. The onset clotting time was determined as an intersection of the baseline and the initial slope of the O.D. change as a result of fibrin clot formation. The concentration of a peptide needed to double the clotting time (DCT) was defined as IC50. Peptide concentrations were determined by comparing the O.D.280 values of peptide stock solutions in the clotting buffer (vide supra) with the predicted extinction coefficient for each peptide (Gill, S. C. and von Hippel, P. H. (1989) Anal. Biochem. 182, 319-326).
The peptide concentration for doubling the clotting time (DCT) was defined as the IC50 value.

human α-thrombin [2] = biological target: T1, human α-thrombin; assay: Inhibition of the amidolytic activity of thrombin (Tos-Gly-Pro-Arg-p-nitroanilide hydrolysis); type: biochemical; conditions: Amidolytic assay, 25° C. (Ki, nM), Tos-Gly-Pro-Arg-pNA, 25° C.
Procedure: Kinetics of thrombin-catalyzed hydrolysis of the chromogenic substrate Tos-Gly-Pro-Arg-p-nitroanilide were followed by absorbance at 405 nm on a Spectramax plate reader thermostated at either 25° C. or 37° C. according to the method of Maragnore et al (supra). The concentrations of Tos-Gly-Pro-Arg-p-nitroanilide ranged from 2 to 400 μM. Initial rates were calculated under conditions of <15% hydrolysis of the total substrate. The KM and Vmax values were calculated accordingly and kcat values were determined by dividing Vmax by the enzyme (thrombin) concentration. The inhibition assays were performed in the clotting buffer with a certain fixed concentration of α-thrombin (˜0.3 nM) such that linear progress curves were achieved within at least 15 min in the absence of the inhibition. The total volume of the solution was fixed at 200 μl. Reactions were initiated by addition of the chromogenic substrate to the wells containing thrombin and a certain concentration of the peptide inhibitors premixed for less than 2 min. Alternatively, the substrate was first mixed with the peptide inhibitor and the total volume was adjusted to 120 μL using the clotting buffer. Eighty microliters of human α-thrombin in the clotting buffer (˜0.3 nM final concentration) was added to initiate the reaction. The concentration of the peptides ranged from 0.5 nM to 10 μM. Kinetics data from initial rate experiments were used to construct Lineweaver-Burke plot; i.e. the relationship of (substrate concentration)^−1 versus (initial velocity)^−1 which. were analysed by linear regression with MicroCal Origin 4.1 program (MicroCal, MD) or using the GraphPad Prism software. The Ki values of the inhibitors were determined using the equation: Ki=[I]/{(SL0/SL1)−1}, where
[I] is the inhibitor concentration,
SL0 is the slope of the reaction in the absence of inhibitors, and
SL1 is the slope of the reaction in the presence of the inhibitor.
Alternatively, Dixon plots of inverse velocity versus the inhibitor concentrations were generated with the Sigmaplot™ software. Every Dixon plot contained an array of data corresponding to different substrate concentrations and the Ki values were determined from the intersections. Following Peptide Cleavage by HPLC

Molecule | IC50 (human α-thrombin [1]) | Ki (human α-thrombin [2]) [nM]
CC[C@H](C)[C@H](NC(=O)[C@H](CCC(=O)O)NC(=O)[C@H](CCC(=O)O)NC(=O)[C@H](Cc1ccccc1)NC(=O)[C@H](CC(=O)O)NC(=O)CNC(=O)[C@H](CC(=O)O)NC(=O)[C@H](CC(N)=O)NC(=O)[C@H](Cc1c[nH]cn1)NC(=O)[C@H](CC(=O)O)NC(=O)[C@H](CCC(N)=O)NC(=O)[C@@H]1CCCN1C(=O)[C@H](CCCNC(=N)N)NC(=O)[C@@H]1CCCN1C(=O)[C@H](CC(=O)O)NC(=O)[C@@H](N)Cc1ccccc1)C(=O)N1CCC[C@H]1C(=O)N[C@@H](CCC(=O)O)C(=O)N[C@@H](CCC(=O)O)C(=O)N[C@@H](Cc1ccc(O)cc1)C(=O)N[C@@H](CC(C)C)C(=O)N[C@@H](CCC(N)=O)C(=O)O [FD22-D] | 53 ± 2 nM | 
CC[C@H](C)[C@H](NC(=O)[C@H](CCC(=O)O)NC(=O)[C@H](CCC(=O)O)NC(=O)[C@H](Cc1ccccc1)NC(=O)[C@H](CC(=O)O)NC(=O)CNC(=O)[C@H](CC(=O)O)NC(=O)[C@H](CC(N)=O)NC(=O)[C@H](Cc1c[nH]cn1)NC(=O)[C@H](CCCNC(=N)N)NC(=O)[C@H](CCC(N)=O)NC(=O)[C@@H]1CCCN1C(=O)[C@H](CCCNC(=N)N)NC(=O)[C@@H]1CCCN1C(=O)[C@H](CC(=O)O)NC(=O)[C@@H](N)Cc1ccccc1)C(=O)N1CCC[C@H]1C(=O)N[C@@H](CCC(=O)O)C(=O)N[C@@H](CCC(=O)O)C(=O)N[C@@H](Cc1ccc(O)cc1)C(=O)N[C@@H](CC(C)C)C(=O)N[C@@H](CCC(N)=O)C(=O)O [FD22-R] | ~32 nM and 32 nM | 45 ± 6
CC[C@H](C)[C@H](NC(=O)[C@H](CCC(=O)O)NC(=O)[C@H](CCC(=O)O)NC(=O)[C@H](Cc1ccccc1)NC(=O)[C@H](CC(=O)O)NC(=O)CNC(=O)[C@H](CC(=O)O)NC(=O)[C@H](CC(N)=O)NC(=O)[C@H](Cc1c[nH]cn1)NC(=O)[C@H](CO)NC(=O)[C@H](CCC(N)=O)NC(=O)[C@@H]1CCCN1C(=O)[C@H](CCCNC(=N)N)NC(=O)[C@@H]1CCCN1C(=O)[C@H](CC(=O)O)NC(=O)[C@@H](N)Cc1ccccc1)C(=O)N1CCC[C@H]1C(=O)N[C@@H](CCC(=O)O)C(=O)N[C@@H](CCC(=O)O)C(=O)N[C@@H](Cc1ccc(O)cc1)C(=O)N[C@@H](CC(C)C)C(=O)N[C@@H](CCC(N)=O)C(=O)O [FD22^(a)] | 50 ± 15 nM | 55 ± 10
CC[C@H](C)[C@H](NC(=O)[C@H](CCC(=O)O)NC(=O)[C@H](CCC(=O)O)NC(=O)[C@H](Cc1ccccc1)NC(=O)[C@H](CC(=O)O)NC(=O)CNC(=O)[C@H](CC(=O)O)NC(=O)[C@H](CC(N)=O)NC(=O)[C@H](Cc1c[nH]cn1)NC(=O)[C@H](CC(=O)O)NC(=O)[C@H](CCC(N)=O)NC(=O)[C@@H]1CCCN1C(=O)[C@H](CCCNC(=N)N)NC(=O)[C@@H]1CCCN1C(=O)[C@H](CCC(=O)O)NC(=O)[C@@H](N)Cc1ccccc1)C(=O)N1CCC[C@H]1C(=O)N[C@@H](CCC(=O)O)C(=O)N[C@@H](CCC(=O)O)C(=O)N[C@@H](Cc1ccc(O)cc1)C(=O)N[C@@H](CC(C)C)C(=O)N[C@@H](CCC(N)=O)C(=O)O [FE22-D] | > 125 nM | 
CC[C@H](C)[C@H](NC(=O)[C@H](CCC(=O)O)NC(=O)[C@H](CCC(=O)O)NC(=O)[C@H](Cc1ccccc1)NC(=O)[C@H](CC(=O)O)NC(=O)CNC(=O)[C@H](CC(=O)O)NC(=O)[C@H](CC(N)=O)NC(=O)[C@H](Cc1c[nH]cn1)NC(=O)[C@H](CO)NC(=O)[C@H](CCC(N)=O)NC(=O)[C@@H]1CCCN1C(=O)[C@H](CCCNC(=N)N)NC(=O)[C@@H]1CCCN1C(=O)[C@H](CCC(=O)O)NC(=O)[C@@H](N)Cc1ccccc1)C(=O)N1CCC[C@H]1C(=O)N[C@@H](CCC(=O)O)C(=O)N[C@@H](CCC(=O)O)C(=O)N[C@@H](Cc1ccc(O)cc1)C(=O)N[C@@H](CC(C)C)C(=O)N[C@@H](CCC(N)=O)C(=O)O [FE22] | 80 nM | 
CC[C@H](C)[C@H](NC(=O)[C@H](CCC(=O)O)NC(=O)[C@H](CCC(=O)O)NC(=O)[C@H](Cc1ccccc1)NC(=O)[C@H](CC(=O)O)NC(=O)CNC(=O)[C@H](CC(=O)O)NC(=O)[C@H](CC(N)=O)NC(=O)[C@H](Cc1c[nH]cn1)NC(=O)[C@H](CO)NC(=O)[C@H](CCC(N)=O)NC(=O)[C@@H]1CCCN1C(=O)[C@H](CCCNC(=N)N)NC(=O)[C@@H]1CCCN1C(=O)[C@H](Cc1c[nH]cn1)NC(=O)[C@@H](N)Cc1ccccc1)C(=O)N1CCC[C@H]1C(=O)N[C@@H](CCC(=O)O)C(=O)N[C@@H](CCC(=O)O)C(=O)N[C@@H](Cc1ccc(O)cc1)C(=O)N[C@@H](CC(C)C)C(=O)N[C@@H](CCC(N)=O)C(=O)O [FH22] | > 150 nM | 
CC[C@H](C)[C@H](NC(=O)[C@H](CCC(N)=O)NC(=O)[C@@H]1CCCN1C(=O)[C@H](CCCNC(=N)N)NC(=O)[C@@H]1CCCN1C(=O)[C@H](CC(N)=O)NC(=O)[C@@H](N)Cc1ccccc1)C(=O)N[C@@H](Cc1c[nH]cn1)C(=O)N[C@@H](CC(N)=O)C(=O)N[C@@H](CC(=O)O)C(=O)NCC(=O)N[C@@H](CC(=O)O)C(=O)N[C@@H](Cc1ccccc1)C(=O)N[C@@H](CCC(=O)O)C(=O)N[C@@H](CCC(=O)O)C(=O)N[C@H](C(=O)N1CCC[C@H]1C(=O)N[C@@H](CCC(=O)O)C(=O)N[C@@H](CCC(=O)O)C(=O)N[C@@H](Cc1ccc(O)cc1)C(=O)N[C@@H](CC(C)C)C(=O)N[C@@H](CCC(N)=O)C(=O)O)[C@@H](C)CC [FN22-I] | 45 nM | 360
CC[C@H](C)[C@H](NC(=O)[C@H](CCC(=O)O)NC(=O)[C@H](CCC(=O)O)NC(=O)[C@H](Cc1ccccc1)NC(=O)[C@H](CC(=O)O)NC(=O)CNC(=O)[C@H](CC(=O)O)NC(=O)[C@H](CC(N)=O)NC(=O)[C@H](Cc1c[nH]cn1)NC(=O)[C@H](CO)NC(=O)[C@H](CCC(N)=O)NC(=O)[C@@H]1CCCN1C(=O)[C@H](CCCNC(=N)N)NC(=O)[C@@H]1CCCN1C(=O)[C@H](CC(N)=O)NC(=O)[C@@H](N)Cc1ccccc1)C(=O)N1CCC[C@H]1C(=O)N[C@@H](CCC(=O)O)C(=O)N[C@@H](CCC(=O)O)C(=O)N[C@@H](Cc1ccc(O)cc1)C(=O)N[C@@H](CC(C)C)C(=O)N[C@@H](CCC(N)=O)C(=O)O [FN22^(a)] | 150 ± 15 nM | 100 ± 10
CC[C@H](C)[C@H](NC(=O)[C@H](CCC(=O)O)NC(=O)[C@H](CCC(=O)O)NC(=O)[C@H](Cc1ccccc1)NC(=O)[C@H](CC(=O)O)NC(=O)CNC(=O)[C@H](CC(=O)O)NC(=O)[C@H](CC(N)=O)NC(=O)[C@H](Cc1c[nH]cn1)NC(=O)[C@H](CCSC)NC(=O)[C@H](CCC(N)=O)NC(=O)[C@@H]1CCCN1C(=O)[C@H](CCCNC(=N)N)NC(=O)[C@@H]1CCCN1C(=O)[C@H](CCC(N)=O)NC(=O)[C@@H](N)Cc1ccccc1)C(=O)N1CCC[C@H]1C(=O)N[C@@H](CCC(=O)O)C(=O)N[C@@H](CCC(=O)O)C(=O)N[C@@H](Cc1ccc(O)cc1)C(=O)N[C@@H](CC(C)C)C(=O)N[C@@H](CCC(N)=O)C(=O)O [FQ22-M] | ≥ 10 nM | 
CC[C@H](C)[C@H](N)C(=O)N[C@@H](CCC(N)=O)C(=O)N1CCC[C@H]1C(=O)N[C@@H](CCCNC(=N)N)C(=O)N1CCC[C@H]1C(=O)N[C@@H](CCC(N)=O)C(=O)N[C@H](C(=O)N[C@@H](Cc1c[nH]cn1)C(=O)N[C@@H](CC(N)=O)C(=O)N[C@@H](CC(=O)O)C(=O)NCC(=O)N[C@@H](CC(=O)O)C(=O)N[C@@H](Cc1ccccc1)C(=O)N[C@@H](CCC(=O)O)C(=O)N[C@@H](CCC(=O)O)C(=O)N[C@H](C(=O)N1CCC[C@H]1C(=O)N[C@@H](CCC(=O)O)C(=O)N[C@@H](CCC(=O)O)C(=O)N[C@@H](Cc1ccc(O)cc1)C(=O)N[C@@H](CC(C)C)C(=O)N[C@@H](CCC(N)=O)C(=O)O)[C@@H](C)CC)[C@@H](C)CC [IQ22-I] | 39 ± 3 nM | 
WDPRPQRHNDGDFEPIPEEYLQ [WD22-R-P^(d)] | 8.1 ± 1.1 nM | 
WDPRPQRHNDGDYEPIPEEYLQ [WD22-R-YP^(d)] | 4.8 ± 0.8 nM | 
WDPRPQSRNDGDFEPIPEEYLQ [WD22-SR-P] | 53 ± 2 nM | 
WDPRPQSRNDGDYEPIPEEYLQ [WD22-SR-YP] | 32 ± 3 nM | 
